biological target: T1, Inhibitor of nuclear factor kappa-B kinase subunit beta (Homo sapiens, UniProt O14920); experiment: Inhibition of Flag epitope-tagged IKK-beta preincubated for 5 mins by scintillation proximity assay
T1 sequence (O14920 whole entry): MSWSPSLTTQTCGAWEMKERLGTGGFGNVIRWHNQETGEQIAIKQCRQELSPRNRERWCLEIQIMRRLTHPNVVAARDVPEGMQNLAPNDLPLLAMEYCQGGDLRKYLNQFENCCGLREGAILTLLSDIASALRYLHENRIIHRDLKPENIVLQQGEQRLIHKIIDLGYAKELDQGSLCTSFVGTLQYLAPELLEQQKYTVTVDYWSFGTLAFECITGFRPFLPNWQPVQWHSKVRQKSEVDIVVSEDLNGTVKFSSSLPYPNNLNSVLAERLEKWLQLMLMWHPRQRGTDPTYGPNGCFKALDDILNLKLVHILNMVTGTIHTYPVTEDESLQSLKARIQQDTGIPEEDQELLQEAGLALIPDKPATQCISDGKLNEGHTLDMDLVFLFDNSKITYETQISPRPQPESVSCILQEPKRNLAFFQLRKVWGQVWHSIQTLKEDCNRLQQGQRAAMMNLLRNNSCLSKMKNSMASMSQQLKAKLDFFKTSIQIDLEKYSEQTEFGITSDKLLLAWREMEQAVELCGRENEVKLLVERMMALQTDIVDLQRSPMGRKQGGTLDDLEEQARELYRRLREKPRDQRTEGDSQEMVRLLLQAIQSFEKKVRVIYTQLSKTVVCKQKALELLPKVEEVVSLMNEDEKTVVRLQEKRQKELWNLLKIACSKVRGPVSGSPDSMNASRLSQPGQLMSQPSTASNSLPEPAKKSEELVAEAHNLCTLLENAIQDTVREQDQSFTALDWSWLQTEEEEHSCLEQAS

| Compound | IC50 [nM] |
| --- | --- |
| Cc1cc(OCCN)nc2sc(C(N)=O)c(N)c12 | 2900 |
| CCCc1cc(N2CC[C@@H](N)C2)nc2sc(C(N)=O)c(N)c12 | 500 |
| CCCc1cc(N2CCC(C(N)=O)CC2)nc2sc(C(N)=O)c(N)c12 | 1300 |
| CCCc1cc(N2CC[C@H](N)C2)nc2sc(C(N)=O)c(N)c12 | 590 |
| CCCc1cc(N2CCN(C(N)=O)CC2)nc2sc(C(N)=O)c(N)c12 | 150 |
| Cc1cc(NCCO)nc2sc(C(N)=O)c(N)c12 | 5800 |
| CCCOc1ccnc2sc(C(N)=O)c(N)c12 | 2200 |
| Cc1cc(N2CCNCC2)nc2sc(C(N)=O)c(N)c12 | 680 |
| CCCc1cc(N2CCN(C)CC2)nc2sc(C(N)=O)c(N)c12 | 520 |
| Cc1cc(-c2ccccc2)c2c(N)c(C(N)=O)sc2n1 | 7400 |
| CCCc1cc(N2CC[C@@H](O)C2)nc2sc(C(N)=O)c(N)c12 | 1950 |
| Cc1cc(N2CCOCC2)nc2sc(C(N)=O)c(N)c12 | 2500 |
| Cc1cc(OCCCN)nc2sc(C(N)=O)c(N)c12 | > 50000 |
| Cc1cc(-c2cc3ccccc3o2)c2c(N)c(C(N)=O)sc2n1 | 16900 |
| CCCc1cc(N2CCCNCC2)nc2sc(C(N)=O)c(N)c12 | 72 |
| Cc1cc(-c2ccco2)c2c(N)c(C(N)=O)sc2n1 | 1100 |
| COc1ccnc2sc(C(N)=O)c(N)c12 | 4700 |
| Cc1cc(-c2cccs2)c2c(N)c(C(N)=O)sc2n1 | 2000 |
| Cc1cc(C)c2c(N)c(C(N)=O)sc2n1 | 2700 |
| COCCOc1ccnc2sc(C(N)=O)c(N)c12 | 10800 |
| CCCc1cc(N2CCC(O)C(C)(C)C2)nc2sc(C(N)=O)c(N)c12 (single isomer, unassigned; enantiomer 1) | 42 |
| CCCc1cc(N2CCC(O)C(C)(C)C2)nc2sc(C(N)=O)c(N)c12 (single isomer, unassigned; enantiomer 2) | 240 |
| Cc1cc(-c2ccc(O)cc2)c2c(N)c(C(N)=O)sc2n1 | > 20000 |

| Compound | IC50 [nM] |
| --- | --- |
| CCCc1cc(N2CCC(N(C)C)CC2)nc2sc(C(N)=O)c(N)c12 | 680 |
| CCCc1cc(N2CCC(NC)CC2)nc2sc(C(N)=O)c(N)c12 | 120 |
| CCCc1cc(N2CCNC(=O)C2)nc2sc(C(N)=O)c(N)c12 | 2000 |
| Cc1cc(N2CCC(O)CC2)nc2sc(C(N)=O)c(N)c12 | 750 |
| Cc1cc(-c2ccc(Cl)cc2)c2c(N)c(C(N)=O)sc2n1 | 14000 |
| CCCc1cc(N2CCC(C(=O)OC)CC2)nc2sc(C(N)=O)c(N)c12 | 7800 |
| Cc1cc(N2CCCC(O)C2)nc2sc(C(N)=O)c(N)c12 (stereo unspecified) | 2400 |
| Cc1cc(CC(C)C)c2c(N)c(C(N)=O)sc2n1 | 2500 |
| CCCc1cc(N2CCC(OC)CC2)nc2sc(C(N)=O)c(N)c12 | 680 |
| CCCc1cc(C)nc2sc(C(N)=O)c(N)c12 | 1300 |
| CCCc1cc(N2CC[C@H](O)C2)nc2sc(C(N)=O)c(N)c12 | 1450 |
| CCOc1ccnc2sc(C(N)=O)c(N)c12 | 2000 |
| Cc1cc(N2CCCCC2)nc2sc(C(N)=O)c(N)c12 | 2400 |
| CCCc1cc(N2CCCCC(N)C2)nc2sc(C(N)=O)c(N)c12 (stereo unspecified) | 630 |
| Cc1cc(-c2ccccn2)c2c(N)c(C(N)=O)sc2n1 | 6000 |
| CCCc1cc(N2CCCNC(=O)C2)nc2sc(C(N)=O)c(N)c12 | 140 |
| Cc1cc(OCCCO)nc2sc(C(N)=O)c(N)c12 | 5100 |
| Cc1ccc(-c2cc(C)nc3sc(C(N)=O)c(N)c23)cc1 | 8500 |
| Cc1cc(OCCO)nc2sc(C(N)=O)c(N)c12 | 6600 |
| Cc1cc(CO)c2c(N)c(C(N)=O)sc2n1 | 13500 |
| Cc1ccc2c(N)c(C(N)=O)sc2n1 | 12700 |
| CCCc1cc(N2CCC(NS(C)(=O)=O)CC2)nc2sc(C(N)=O)c(N)c12 | 98 |
| Cc1cc(-c2ccc(S(C)(=O)=O)cc2)c2c(N)c(C(N)=O)sc2n1 | 1300 |

— ChEMBL document CHEMBL1156029, “The discovery of thienopyridine analogues as potent IkappaB kinase beta inhibitors. Part II” (Bioorg Med Chem Lett, 2009)
